Laboratory results reported in PMC11863921 (BMC Biology, 2025).
“Also recorded” adds a separate entry of the source.

Target: T1, AsolRXFP/LGR3 (Acanthaster planci, UniProt A0A8B7XXQ8)
T1 sequence (A0A8B7XXQ8 1-847): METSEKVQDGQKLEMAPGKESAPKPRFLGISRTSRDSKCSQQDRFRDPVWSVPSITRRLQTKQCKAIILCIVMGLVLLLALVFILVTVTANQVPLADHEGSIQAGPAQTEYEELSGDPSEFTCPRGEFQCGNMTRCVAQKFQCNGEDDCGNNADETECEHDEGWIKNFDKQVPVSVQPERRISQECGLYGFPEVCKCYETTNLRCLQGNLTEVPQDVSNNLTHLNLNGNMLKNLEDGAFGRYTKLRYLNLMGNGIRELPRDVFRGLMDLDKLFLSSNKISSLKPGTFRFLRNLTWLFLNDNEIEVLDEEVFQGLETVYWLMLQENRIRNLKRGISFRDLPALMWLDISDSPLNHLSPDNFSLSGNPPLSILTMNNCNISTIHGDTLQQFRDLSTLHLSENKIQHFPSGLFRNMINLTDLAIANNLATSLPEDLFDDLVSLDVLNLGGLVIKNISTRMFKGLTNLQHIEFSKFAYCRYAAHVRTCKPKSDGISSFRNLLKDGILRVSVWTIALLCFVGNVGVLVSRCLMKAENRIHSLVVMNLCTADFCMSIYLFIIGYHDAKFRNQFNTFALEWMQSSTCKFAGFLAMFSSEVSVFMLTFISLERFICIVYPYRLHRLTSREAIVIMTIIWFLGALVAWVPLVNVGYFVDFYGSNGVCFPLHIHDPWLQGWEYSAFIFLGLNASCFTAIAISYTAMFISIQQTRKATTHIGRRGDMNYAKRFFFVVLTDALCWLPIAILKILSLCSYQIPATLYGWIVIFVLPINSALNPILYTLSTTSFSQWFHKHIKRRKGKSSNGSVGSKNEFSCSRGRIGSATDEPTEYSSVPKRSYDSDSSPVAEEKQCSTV
Assay: CRE reporter gene assay in CHO cells stably expressing AsolRXFP/LGR3
Format: cell-based, A. cf. solaris
Conditions: for cAMP activity / CRE reporter gene activation: increasing concentrations
Protocol: Human embryonic kidney (HEK) 293T cells were grown in complete Dulbecco’s modified Eagle medium (DMEM; Gibco) and Chinese hamster ovary (CHO) cells in complete DMEM/F12 (Gibco). Media was supplemented with 10% fetal bovine serum, 1% penicillin/streptomycin, and 1% L‐glutamine (complete media; All from Gibco). HEK-293T cells were transfected with LipofectAMINE 2000 (Invitrogen) and CHO cells with CHO TransIT and CHO-Mojo (Mirus), both according to the manufacturer’s instructions.
CHO and HEK293T cells stably expressing AsolRXFP/LGR3 were generated by lentiviral transduction. HEK293T cells were plated in 10 cm dishes for transfection with pLenti X1-Ef1α-COT-RXFP-like 2-IRES-GFP along with the lentiviral packaging and envelope plasmids pMDL, pRSV‐Rev, and pCMV‐VSV‐G, using Lipofectamine 2000. The following day, media containing lentivirus was harvested and filtered through a 0.45 μm syringe filter. Fresh CHO and HEK293T cells in 10 cm plates were transduced by replacing the cell culture media with the filtered media containing lentivirus, mixed with 4 μg/mL hexadimethrine bromide (Polybrene) to increase transduction efficiency. Three rounds of transduction were performed over 32 h, before cells were allowed to recover for three days in complete media. Transduced cells were sorted from non-transduced cells using the GFP reporter by fluorescence-activated cell sorting (FACS), using a Becton Dickinson FACSAria III as previously described. Single, live cells with low GFP expression were selected to represent low AsolRXFP/LGR3 expression and were subsequently grown to confluency in a T175 flask and cryopreserved.
The ability of the A. cf. solaris receptors to respond to A. cf. solaris RGP1 and RGP2 peptides was tested using a pCRE β-galactosidase reporter gene assay in CHO cells stably expressing AsolRXFP/LGR3 or HEK-293T cells transfected with AsolRXFP/LGR4 (long) or AsolRXFP/LGR4 (short), as described in detail previously. Importantly, the pCRE β-galactosidase reporter gene assay measures both Gs and Gq activation downstream of GPCR activation by monitoring CREB-mediated gene transcription. Cells were seeded in 96 well plates and were left to grow overnight at 37 °C in an incubator with 5% CO2. The next day the cells were transfected with different amounts of the pCRE reporter gene DNA [57] and/or pcDNA3.1 receptor constructs, as described above, and were left to grow overnight in an incubator. Triplicate wells in each plate were transfected with the equivalent amount of pCRE reporter gene DNA and pcDNA3.1 without a receptor-encoding insert as the background CRE activity control. The next day cells were exposed in triplicate wells to increasing concentrations of peptides diluted in media for 6 h at 37 °C in an incubator. Triplicate parallel wells contained 5 µM forskolin and blank media as positive and negative controls, respectively. At the end of the incubation period, the media was aspirated, and the plate was stored at − 80 °C until development. Plates were thawed for the development of β-galactosidase activity, as described previously, with absorbance being read at 570 nm on an Epoch 2 microplate reader. The data were analyzed as the percentage of the response induced by 5 µM forskolin and pooled followed by fitting to a three-parameter sigmoidal dose–response curve using GraphPad Prism 10. Experiments were performed at least three times with triplicate determinations in each assay (Additional file 17: Dataset S10).

## Acanthaster cf. solaris Relaxin-like gonad-stimulating peptide 1 [AsolRGP1]
CHO-AsolRXFP/LGR3 cells, 5 µM forskolin = reference, n = 6
  efficacy (Emax): 38.6 ± 6.9 % forskolin response
CHO-AsolRXFP/LGR3 cells
  cAMP activity / CRE reporter gene activation: concentration-dependent cAMP activity; also recorded: dose-dependent increase in CRE reporter gene activation

## Acanthaster cf. solaris Relaxin-like gonad-stimulating peptide 2 [AsolRGP2]
CHO-AsolRXFP/LGR3 cells
  cAMP activity / CRE reporter gene activation: only at high concentrations; also recorded: small but significant response but no clear dose–response
Compared with RGP1
  relative potency/efficacy as ligand for AsolRXFP/LGR3: much lower than that of RGP1
